# Data reported in patent publication US7645802B2 (Biovail Laboratories International SRL., priority 2005, dated 2010).
# Counter-ions that a name gives are not always drawn.
# Assays:
# [1] = forced degradation of bupropion HBr and HCl in the presence of excipients at 55° C., 55° C./100% RH, 100° C., 105° C. (incl. TGA at 100° C.); type: physicochemical; conditions: in the presence of excipients, 55° C., 55° C./100% RH, 100° C., 105° C.
# Description: Further forced degradation studies were carried out at 55° C., at 55° C. and 100% relative humidity, at 100° C., and at 105° C. on both the HCl and HBr Bupropion salts in the presence of excipients. […] FIG. 53 is a graph showing the loss of each salt over time in a TGA experiment at 100° C.
# CD-1 mice = assay: clonic convulsions in CD-1 mice after intraperitoneal dosing (range finding and main study)
# Description: Two studies were performed to investigate the relative proconvulsant properties of the two bupropion salts. In the first instance a range finding study was performed to establish the appropriate dose range for the main study. In each study the mice were divided into two dose groups and injected intraperitoneally with either bupropion HCl or bupropion HBr.
# A clonic convulsion was defined as a stiffening of the animal followed by jerking movements. The convulsions were classified as mild, moderate and severe according to the following descriptions.
# Mild: Head and tail slightly extended and little jerking
# Moderate: Head and tail fully extended with some jerking
# Severe: Head and tail fully extended with strong jerking
# Post-treatment findings recorded included continuous observation for 120 minutes for evidence of clonic convulsions, and intermittent (fixed) observations for 24 hours for other signs, including tonic convulsions, movement, activity, paralysis, gait and evidence of recovery.
# mice = assay: Proconvulsant properties of bupropion salts: clonic convulsions in mice; conditions: for Mean Number of Convulsions/Mouse / Total Number of convulsions: N=13
# Description: Number of convulsions and the intensity of the convulsions were recorded.
# Mild: Head and tail slightly extended and little jerking; Moderate: Head and tail fully extended with some jerking; Severe: Head and tail fully extended with strong jerking. […] Step 2: To further investigate the patterns of convulsion occurrence using loglinear Poisson regression models. The number of convulsions was analyzed using the loglinear Poisson regression models with formulation, dose, and severity as predictors.
# [2] = Closed vial / closed glass bottle stability (40° C./75% RH) of bupropion salt APIs; type: physicochemical
# [3] = Dynamic Vapour Sorption (DVS) analysis
# [4] = Solubility and other physical properties, Bupropion HBr vs Bupropion HCl; conditions: HCl from Erregierre, HBr from Chemi; hydrobromide
# [5] = test system: chemically-induced seizures (induced by pentylenetetrazole) in mice; conditions: cited from earlier work
# [6] = 100 mg/kg i.p., pooled data N = 13/dose group, hydrobromide
# [7] = 150 mg/kg i.p., pooled data N = 13/dose group, hydrobromide
# [8] = 150 mg/kg, Moderate, hydrobromide
# [9] = 150 mg/kg, Severe, hydrobromide
# [10] = 10-Days, closed glass bottle 40 C./75% RH, HBr Lot# STN07491, HCl Lot# STN06973, hydrobromide
# [11] = 10 Days, closed glass bottle 40 C./75% RH, HBr Lot# STN07492, HCl Lot# STN06978, hydrobromide
# [12] = 14-Days, closed glass bottle 40° C./75% RH, HBr Lot# STN07492, HCl L# STN06973, hydrobromide
# [13] = 24 Days, closed glass bottle 40° C./75% RH, HBr Lot# STN07492, HCl L# STN06973, hydrobromide
# [14] = Initial, closed glass bottle 40 C./75% RH, HBr Lot# STN07491, HCl Lot# STN06973, hydrobromide
# [15] = Initial, closed glass bottle 40 C./75% RH, HBr Lot# STN07492, HCl Lot# STN06978, hydrobromide
# [16] = Initial, closed glass bottle 40° C./75% RH, HBr Lot# STN07492, HCl L# STN06973, hydrobromide
structure (smiles),measurement,setting,value
"CC(NC(C)(C)C)C(=O)c1cccc(Cl)c1 (stereo not shown) [Bupropion HBr, bupropion hydrobromide]",stability / degradation compared to bupropion HCl,[1],significant improvements in stability compared to bupropion HCl
same,Mean Intensity of Convulsions/Mouse % of Total: Mild,CD-1 mice; [6],90.0 % of Total
same,Mean Intensity of Convulsions/Mouse % of Total: Moderate,CD-1 mice; [6],10.0 % of Total
same,Mean Intensity of Convulsions/Mouse % of Total: Severe,CD-1 mice; [6],0.0 % of Total
same,Mean Number of Convulsions/Mouse,CD-1 mice; [6],0.8
same,numbers of mice that had convulsions in the dose group,CD-1 mice; [6],3/13
same,Mean Number of Convulsions/Mouse,"CD-1 mice; 100 mg/kg i.p., range-finding study, N = 3/dose group, hydrobromide",0
same,numbers of mice that had convulsions in the dose group,"CD-1 mice; 100 mg/kg i.p., second (main) study, N = 10/dose group",3/10
same,Mean Number of Convulsions/Mouse,"CD-1 mice; 100 mg/kg i.p., second (main) study, N = 10/dose group, hydrobromide",1.0
same,Mean Intensity of Convulsions/Mouse % of Total: Mild,CD-1 mice; [7],21.3 % of Total
same,Mean Intensity of Convulsions/Mouse % of Total: Moderate,CD-1 mice; [7],25.7 % of Total
same,Mean Intensity of Convulsions/Mouse % of Total: Severe,CD-1 mice; [7],53.0 % of Total
same,Mean Number of Convulsions/Mouse,CD-1 mice; [7],46.6
same,Mean Number of Convulsions/Mouse,"CD-1 mice; 150 mg/kg i.p., range-finding study, N = 3/dose group, hydrobromide",11.0
same,Mean Number of Convulsions/Mouse,"CD-1 mice; 150 mg/kg i.p., second (main) study, N = 10/dose group, hydrobromide",57.3
same,numbers of mice that had convulsions in the dose group,"CD-1 mice; […] i.p., pooled data N = 13/dose group, hydrobromide",11/13
same,numbers of mice that had convulsions in the dose group,"CD-1 mice; […] i.p., second (main) study, N = 10/dose group, hydrobromide",8/10
same,recovery from other treatment-related signs,CD-1 mice; range finding study,tendency to recover more quickly
same,threshold for tonic convulsions,"CD-1 mice; range finding study, i.p., hydrobromide",125 mg/kg
same,"Mean Number of Convulsions/Mouse, cumulative","mice; 100 mg/kg, All, hydrobromide",0.77
same,Mean Number of Convulsions/Mouse,"mice; 100 mg/kg, Mild, hydrobromide",0.69
same,Total Number of convulsions,"mice; 100 mg/kg, Mild, hydrobromide",9
same,Mean Number of Convulsions/Mouse,"mice; 100 mg/kg, Moderate",0.08
same,"Mean Number of Convulsions/Mouse, cumulative","mice; 100 mg/kg, Severe + Moderate, hydrobromide",0.08
same,Mean Number of Convulsions/Mouse,"mice; 100 mg/kg, Severe, 120 min observation, hydrobromide",0.0
same,Total Number of convulsions,"mice; 100 mg/kg, Severe, hydrobromide",0
same,"Mean Number of Convulsions/Mouse, cumulative","mice; 150 mg/kg, All, hydrobromide",46.61
same,Mean Number of Convulsions/Mouse,"mice; 150 mg/kg, Mild, hydrobromide",9.92
same,Total Number of convulsions,"mice; 150 mg/kg, Mild, hydrobromide",129
same,Mean Number of Convulsions/Mouse,mice; [8],12.00
same,Total Number of convulsions,mice; [8],156
same,"Mean Number of Convulsions/Mouse, cumulative","mice; 150 mg/kg, Severe + Moderate, hydrobromide",36.69
same,Mean Number of Convulsions/Mouse,mice; [9],24.69
same,Total Number of convulsions,mice; [9],321
same,% Assay,[2]; [10],98.2%
same,% Impurities 3-CBZ,[2]; [10],0.070%
same,% Impurities 20U78/dilu,[2]; [10],0.051%
same,% Impurities 827U76,[2]; [10],0.039%
same,% Impurities 852U77,[2]; [10],0.125%
same,% Impurities Total (%),[2]; [10],0.42%
same,% Impurities Total unknown,[2]; [10],0.129%
same,% Assay,[2]; [11],99.2%
same,% Impurities 3-CBZ,[2]; [11],0.031%
same,% Impurities 20U78/dilu,[2]; [11],0.044%
same,% Impurities 852U77,[2]; [11],0.055%
same,% Impurities Total (%),[2]; [11],0.24%
same,% Impurities Total unknown,[2]; [11],0.15%
same,% Impurities 827U76,"[2]; 14-Days, closed glass bottle 40° C./75% RH, HBr Lot# STN07492, HCl L# STN06973",0.012%
same,% Assay,[2]; [12],98.8%
same,% Impurities 3-CBZ,[2]; [12],0.015%
same,% Impurities 20U78/dilu,[2]; [12],0.048%
same,% Impurities 852U77,[2]; [12],0.058%
same,% Impurities Total (%),[2]; [12],0.23%
same,% Impurities Total unknown,[2]; [12],0.105%
same,% Assay,[2]; [13],99.5%
same,% Impurities 3-CBZ,[2]; [13],0.022%
same,% Impurities 20U78/dilu,[2]; [13],0.038%
same,% Impurities 827U76,[2]; [13],0.016%
same,% Impurities 852U77,[2]; [13],0.052%
same,% Impurities Total (%),[2]; [13],0.23%
same,% Impurities Total unknown,[2]; [13],0.104%
same,% Assay,[2]; [14],99.5%
same,% Impurities 3-CBZ,[2]; [14],0.011%
same,% Impurities 20U78/dilu,[2]; [14],0.041%
same,% Impurities Total (%),[2]; [14],0.17%
same,% Impurities Total unknown,[2]; [14],0.129%
same,% Assay,[2]; [15],99.6%
same,% Impurities 3-CBZ,[2]; [15],0.007%
same,% Impurities 20U78/dilu,[2]; [15],0.041%
same,% Impurities Total (%),[2]; [15],0.23%
same,% Impurities Total unknown,[2]; [15],0.194%
same,% Assay,[2]; [16],99.6%
same,% Impurities 3-CBZ,[2]; [16],0.007%
same,% Impurities 20U78/dilu,[2]; [16],0.044%
same,% Impurities 852U77,[2]; [16],0.009%
same,% Impurities Total (%),[2]; [16],0.16%
same,% Impurities Total unknown,[2]; [16],0.098%
same,solubility,"physchem; organic solvent or mixture, EtOH",92 mg/mL
same,solubility,"physchem; organic solvent or mixture, IPA",12 mg/mL
same,solubility,physchem; water,143 mg/mL
same,"hygroscopicity (DVS, words)",[3]; 0% RH-90% RH,non-hygroscopic
same,maximum water uptake (DVS),[3]; at 90% RH,0.14 % weight
same,PS (Malvern) 10%,[4],10% 72 μm
same,PS (Malvern) 50%,[4],50% 245 μm
same,PS (Malvern) 90%,[4],90% 657 μm
same,moisture content KF,[4],0.00%
same,pH (aq. 0.5%),[4],5.92
Br [bromide],ED50 / therapeutic dose level against pentylenetetrazole-induced seizures,[5],910 mg/kg
